# In US20070082858A1, “Methods and compositions for the prevention of toxic side effects of aminoglycoside medications” (priority 2004, published 2007):
# Entries after “also recorded” stand apart in the source; their conditions may differ.
# Columns and labels:
# [1] = cited from earlier work
# MDCK cells = assay: GTTR uptake into MDCK cells under TRPV1 agonists/antagonists, cation channel blockers, cations and pH (30-60 seconds, 20° C., FATX fixation, confocal imaging); details: for hydrolyzed TR penetration into the cytoplasm (control for toxicity or increased permeability): highest doses shown: 5×10^−7 M RTX; for GTTR uptake stimulated by TRPV1 agonists/antagonists: AND, SB366791 or I-RTX
# Source text: MDCK cells were used as a model system to test regulation of GTTR uptake by conditions known to produce or modify a cation current through the TRPV1 channel. Conditions tested were varying extracellular calcium concentrations, pH, specific agonists, specific antagonists, and the non-specific cation channel blocker Ruthenium Red. In addition, we pre-mixed PIP2 with GTTR to determine whether that anionic phospholipid, known to bind gentamicin, would alter GTTR uptake. All these assays were done at room temperature (20° C.), for 30 or 60 seconds, and using doses of GTTR of 5 to 10 μg/ml, which are far below the typical therapeutic level of <300 μg/ml. Buffers used for treatment were as described for each experiment. Cells were quickly washed to replace culture medium with treatment buffer, treated as indicated, washed again after treatment, fixed immediately with 4% formaldehyde and 0.5% Triton X-100 (FATX), and washed prior to imaging.
# Methods: Cells were seeded into 8-well coverglass chambers at 3000 cells/well and grown for 5 days.
# Cells were washed three times with the buffer to be used in the particular experiment, treated with GTTR and experimental variable for 30 or 60 seconds at 20° C., precluding endocytosis. Following treatment, cells were rinsed three times with buffer, then fixed and delipidated with 4% formaldehyde plus 0.5% Triton X-100 (FATX) for 45 minutes. Following fixation, cells were rinsed with PBS (Invitrogen, CA) for at least 4-6 times, or until foaming in the suction pipette ceased. In contrast to previous experiments, no FBS was present in the treatment media, allowing for more rapid uptake of the antibiotic-based GTTR.
# MDCK cells were washed with Hank's buffered salt solution (HBSS; Invitrogen, CA), then placed into buffers of varying potassium concentrations. HBSS was mixed with equi-osmolar KCl/HBSS to produce the required K^+ concentrations. Cells were treated with 1 μg/mL GTTR for 1 minute, then washed and fixed as described above.
# Cells were washed with PBS (Invitrogen, CA), then placed into buffers containing varying concentrations of calcium, obtained by mixing HBSS with equimolar CaCl2, each at pH 7.3. Cells were treated with 5 μg/mL of GTTR for 30 seconds, then washed and fixed as above.
# Cells were washed with saline, then treated with 5 μg/mL of GTTR in saline buffers of varying pH for 30 seconds, then washed and fixed as above. Sodium hydroxide and hydrochloric acid were used to alter pH. These experiments were performed in three different saline buffers: (i) PBS (no calcium), (ii) a mixture of […] for a final calcium concentration of 0.32 mM, and (iii) a mixture of three parts PBS to one part HBSS for a final calcium concentration of 0.97 mM.
# Cells were washed three times with Ca^++-free saline (0.9% NaCl), then treated with 5 μg/mL GTTR and one of the following for 30 seconds: TRPV1 agonists (resiniferatoxin [RTX]; or anandamide [AND]; Alexis Biochemicals, San Diego, Calif.); or antagonists (iodo-RTX, or SB 366791; Tocris, Ellisville, Mo.). Cells were then washed in saline and fixed as above.
# Cells were washed three times with Ca^++-free 0.9% NaCl, then treated with 5 μg/mL GTTR and one of the following for 30 seconds: 100 μM Ruthenium Red, 100 μM Ruthenium Red plus one of the TRPV1 agonists or antagonists described above; or lanthanum (La^+++) at 0.5 or 5 mM.
# [2] = system: bullfrog saccular hair cells; assay: GTTR uptake in bullfrog saccular explants with TRPV1 regulators; assay type: cell-based
# Procedure: Bullfrogs (Rana catesbeiana) were anesthetized with 0.2% MS-222 and chilled before decapitation. The temporal bones were excised in cold oxygenated HEPES-buffered saline (HBS) containing 110 mM Na+; 2 mM K+; 4 mM Ca2+; 120 mM Cl−; 3 mM D-glucose, and 5 mM HEPES (pH=7.25; 220 mOsmols). Each saccule was isolated and the otolithic membrane removed by proteolytic digestion for 20 minutes in oxygenated 50 μg/ml subtilopeptidase BPN (Sigma) at room temperature. Saccular explants were then incubated in Wolf-Quimby culture medium (containing 1 mM Ca2+; Life Technologies) supplemented with 100 μg/ml ciprofloxacin in a 5% CO2 environment at 25° C. (Steyger et al. 1997; Steyger et al. 1998). Gentamicin-treated explants were incubated in the above culture media, supplemented with 300 μg/ml GT/GTTR.
# murine cochlear explants = assay: GTTR uptake in murine cochlear explants with RTX; assay type: cell-based; details: level of OHC nuclei
# inner ear explants = assay: GTTR uptake in explants of bullfrog and murine inner ears (Example 9); assay type: cell-based
# Source text: Deafness and nephrotoxicity are serious consequences of aminoglycoside (AG) therapy. As discussed above, in cultured kidney cells, the non-endocytotic component of fluorescently-labeled gentamicin (GTTR) uptake was regulated by TRPV1 channel agonists and antagonists (pH, Ca^++, RTX). This example discusses the influence of these modulators on GTTR uptake in explants of bullfrog and murine inner ears.
smiles,measurement,setting,value
[H]/N=C(/N)N[C@H]1[C@H](O)[C@@H](O)[C@H](O[C@@H]2O[C@@H](C)[C@](O)(C=O)[C@H]2O[C@@H]2O[C@@H](CO)[C@H](O)[C@@H](O)[C@@H]2NC)[C@@H](N/C(N)=N\[H])[C@@H]1O [streptomycin],incidence of vestibular impairment,[1]; 1 gram per day,25%
same,patients displaying some vestibular impairment,[1]; 2 grams daily for 60 to 120 days,~75%
C=C(C)[C@]12C[C@@H](C)[C@@]34O[C@](Cc5ccccc5)(O[C@@H]1[C@@H]3C=C(COC(=O)Cc1cc(I)c(O)c(OC)c1)C[C@]1(O)C(=O)C(C)=C[C@@H]41)O2 [I-RTX],GTTR uptake,"MDCK cells; 10^−5 M I-RTX with 0.16 or 2.0 mM added calcium, pH 7.0",still caused increased GTTR uptake
same,GTTR uptake,"MDCK cells; 10^−5 M I-RTX, saline without added calcium, pH 7.0, 1 μg/mL GTTR 30 seconds",increased GTTR uptake
same,GTTR fluorescence,"MDCK cells; I-RTX 10^−5 M, calcium-free saline pH 7.3",well over the upper limit of the available 0 to 255 gray scale
same,hydrolyzed TR penetration into the cytoplasm (control for toxicity or increased permeability),MDCK cells; 10^−5 M I-RTX,Neither I-RTX or RTX induced TR penetration into the cytoplasm
same,"GTTR uptake, effect compared with SB366791","MDCK cells; iodo-RTX dose series 10^−7 to 10^−5 M, calcium-free saline pH 7.3, listed as 1-RTX",dramatic; also recorded: more dramatic
same,GTTR uptake in saccular hair cells,[2]; iodo-RTX,significantly enhanced by iodo-RTX
"C=C(C)[C@]12C[C@@H](C)[C@@]34O[C@](Cc5ccccc5)(O[C@@H]1[C@@H]3C=C(COC(=O)Cc1ccc(O)c(OC)c1)C[C@]1(O)C(=O)C(C)=C[C@@H]41)O2 [RTX, resiniferatoxin]",GTTR uptake,"MDCK cells; 5×10^−9 M RTX with 0.16 or 2.0 mM added calcium, pH 7.0",reduced GTTR uptake compared to controls at the same calcium levels
same,GTTR uptake,"MDCK cells; 5×10^−9 M RTX, saline without added calcium, pH 7.0, 1 μg/mL GTTR 30 seconds",increased GTTR uptake
same,GTTR uptake,"MDCK cells; RTX 5×10^−7 M, calcium-free saline pH 7.3, 5 μg/mL GTTR 30 seconds",little or no change over control
same,GTTR uptake,"MDCK cells; RTX 5×10^−8 M, calcium-free saline pH 7.3, 5 μg/mL GTTR 30 seconds","increased, but to a lesser extent"
same,GTTR uptake,"MDCK cells; RTX 5×10^−9 M, calcium-free saline pH 7.3, 5 μg/mL GTTR 30 seconds",significantly increased
same,GTTR uptake,"MDCK cells; RTX 10^−6 M, calcium-free saline pH 7.3",little or no change over control
same,GTTR uptake,"MDCK cells; RTX 10^−7 M, calcium-free saline pH 7.3",increased to a lesser extent
same,GTTR uptake,"MDCK cells; RTX 10^−8 M, calcium-free saline pH 7.3",significantly increased
same,GTTR uptake,MDCK cells; RTX with calcium concentrations as low as 0.08 mM,inhibited GTTR uptake
same,GTTR uptake,MDCK cells; combination of 2 mM Ca^++ and 5×10^−9 RTX,greatly reduced GTTR uptake
same,hydrolyzed TR penetration into the cytoplasm (control for toxicity or increased permeability),MDCK cells; 10^−5 M I-RTX,Neither I-RTX or RTX induced TR penetration into the cytoplasm
same,GTTR uptake in saccular hair cells,[2]; RTX and Ca++ co-treatment,"reduced by co-treatment with RTX, and Ca++"
same,GTTR uptake in saccular hair cells,[2]; RTX co-administered with GTTR,significantly reduced by RTX
same,GTTR uptake in the organ of Corti,murine cochlear explants; RTX plus Ca++,reduced further by RTX plus Ca++
same,GTTR uptake in the organ of Corti,murine cochlear explants; RTX,reduced by RTX
same,GTTR uptake,inner ear explants; RTX at 0.16 mM Ca^++,enhanced GTTR uptake
same,GTTR uptake,inner ear explants; RTX at physiological Ca^++ levels,reduced GTTR uptake
CC(C)[C@@H]1NC(=O)[C@H](C)OC(=O)[C@@H](C(C)C)NC(=O)[C@@H](C(C)C)OC(=O)[C@H](C(C)C)NC(=O)[C@H](C)OC(=O)[C@@H](C(C)C)NC(=O)[C@@H](C(C)C)OC(=O)[C@H](C(C)C)NC(=O)[C@H](C)OC(=O)[C@@H](C(C)C)NC(=O)[C@@H](C(C)C)OC1=O [Valinomycin],GTTR uptake,"MDCK cells; 10 μg/mL valinomycin in HBSS pH 7.3, 5 μg/mL GTTR 30 seconds",decreased the uptake of GTTR compared to control cells
"CCCCC/C=C\C/C=C\C/C=C\C/C=C\CCCC(=O)NCCO [AND, anandamide]",GTTR uptake,"MDCK cells; AND 10^−4 M, calcium-free saline pH 7.3","little, or no, increase over controls; also recorded: little or no increase over controls"
same,GTTR uptake,"MDCK cells; AND 10^−5 M, calcium-free saline pH 7.3 (Example 1: greater extent than 10^−6 M)","increased, although not to the level seen with RTX"
same,GTTR uptake,"MDCK cells; AND 10^−6 M, calcium-free saline pH 7.3","increased, although not to the level seen with RTX"
"[Gd+3] [Gd^+++, Gadolinium]",GTTR uptake,"MDCK cells; 0.5, 5, or 50 mM Gd^+++ in HBSS pH 7.3, 30 seconds",serially decreased
"N.N.N.N.N.N.N.N.N.N.N.N.N.N.[Cl-].[Cl-].[Cl-].[Cl-].[Cl-].[Cl-].[O-2].[O-2].[Ru+3].[Ru+3].[Ru+4] [RR, Ruthenium Red]",GTTR uptake,MDCK cells; 10 mM RR alone (Example 1),took up less GTTR than controls
same,GTTR uptake stimulated by TRPV1 agonists/antagonists,"MDCK cells; 10 mM RR plus RTX, AND effect not completely blocked (Example 1)","blocked GTTR increases stimulated by RTX, AND, SB366791, and I-RTX"
same,GTTR uptake,MDCK cells; 10^−5 M RR alone (Example 11),took up less GTTR than controls
same,GTTR uptake stimulated by TRPV1 agonists/antagonists,"MDCK cells; 10^−5 M RR plus RTX, AND effect not completely blocked (Example 11)","blocked GTTR increases stimulated by RTX, AND, SB366791, and I-RTX"
same,GTTR uptake in saccular hair cells,[2]; Ruthenium Red,significantly reduced by Ruthenium Red
same,GTTR uptake in saccular hair cells,[2]; Ruthenium Red in explants co-treated with iodo-RTX,significantly reduced by Ruthenium Red
"[Ca+2].[Cl-].[Cl-] [calcium, calcium chloride]",GTTR uptake,"MDCK cells; 0.16 mM Ca^++ vs no calcium added or 2.0 mM, pH 7.0, 1 μg/mL GTTR",higher
same,GTTR uptake,"MDCK cells; 0.16 mM calcium vs no calcium added, saline pH 7.3",increased
same,GTTR uptake,"MDCK cells; calcium concentrations above 0.16 mM, saline pH 7.3",GTTR uptake decreased
same,GTTR uptake,MDCK cells; calcium levels higher than 1.8 mM,almost completely blocking uptake
same,GTTR uptake,MDCK cells; physiological calcium levels (1.8 mM),inhibitory
same,GTTR uptake,inner ear explants; 0.16 mM Ca^++ compared to 0.0 mM Ca^++,greater GTTR uptake
"[Cl-].[K+] [K^+, KCl]",GTTR uptake,"MDCK cells; K^+ increased from 10 mM to 140 mM vs 5.8 mM, HBSS pH 7.3, 1 minute",clear and considerable decrease in GTTR uptake
same,GTTR uptake,inner ear explants; potassium depolarization of explants,decreased GTTR uptake
COc1cccc(NC(=O)/C=C/c2ccc(Cl)cc2)c1 [SB366791],GTTR uptake,"MDCK cells; SB366791 10^−7 M to 10^−5 M, calcium-free saline pH 7.3",increased GTTR uptake significantly; also recorded: serially increased GTTR uptake
